In PMC8426295, “Cytotoxic and radiosensitising effects of a novel thioredoxin reductase inhibitor in breast cancer” (Investigational New Drugs, 2021):

Assays:
[1] = design: method as in PMID 27217046; conditions: clinical; cited from earlier work
[2] = design: method as in PMID 22509926; conditions: cited from earlier work
TrxR = molecular target: T1, TrxR (Homo sapiens, UniProt Q16881); experiment: Thioredoxin reductase activity assay (insulin reduction) on lysates of drug-treated breast cancer cells; format: cell-based; conditions: 1000 nM; for inhibition of TrxR activity: 48 h
T1 sequence (Q16881 1-649): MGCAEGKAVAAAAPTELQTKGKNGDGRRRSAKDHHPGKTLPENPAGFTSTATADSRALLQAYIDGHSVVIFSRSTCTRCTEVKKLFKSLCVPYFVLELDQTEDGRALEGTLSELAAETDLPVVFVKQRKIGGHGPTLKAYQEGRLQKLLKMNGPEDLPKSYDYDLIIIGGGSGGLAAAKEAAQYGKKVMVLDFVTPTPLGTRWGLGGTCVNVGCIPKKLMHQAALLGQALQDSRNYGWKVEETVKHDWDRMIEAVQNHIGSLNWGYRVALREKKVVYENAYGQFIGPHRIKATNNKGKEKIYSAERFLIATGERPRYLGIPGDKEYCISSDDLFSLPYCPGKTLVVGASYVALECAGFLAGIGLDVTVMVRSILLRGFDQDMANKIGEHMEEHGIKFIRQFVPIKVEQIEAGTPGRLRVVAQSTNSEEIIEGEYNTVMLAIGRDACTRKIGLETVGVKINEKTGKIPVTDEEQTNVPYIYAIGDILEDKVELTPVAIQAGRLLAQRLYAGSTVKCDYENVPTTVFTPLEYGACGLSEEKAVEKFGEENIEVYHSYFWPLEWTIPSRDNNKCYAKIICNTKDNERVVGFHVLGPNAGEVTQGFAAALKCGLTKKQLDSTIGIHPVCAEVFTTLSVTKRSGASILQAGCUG
Experimental: TrxR enzyme activity was assessed using an insulin reduction assay. Briefly, 2 × 10^6 cells were seeded, in triplicate, in 75c m^2 tissue culture flasks. After 24 h, sub-confluent cells were treated with either IQ9 (0–1000 nM) or 1000 nM auranofin (as a positive control) for 4 or 48 h, then trypsinised, washed, and resuspended in M-PER™ Mammalian Protein Extraction Reagent (ThermoFisher, USA) supplemented with 1X Halt protease inhibitor and EDTA. Protein concentration was determined using the Bradford assay. 80 μg of protein lysates isolated from each treatment conditions and reaction mix (HE buffer (100 mM HEPES pH 7.2, 5 mM EDTA), 20 μM Trx, 1.7 mM insulin, 10 mM β-NADPH) were added to the 96-well plate and incubated for 1 h at 37 °C. The reaction was stopped by adding stop buffer containing 6 M guanidine hydrochloride, 50 mM Tris, and 10 mM DTNB (Sigma, UK), with a final pH of 8.0. The plate was read at room temperature using a BMG Fluostar Optima Microplate Reader at 412 nm wavelength. The TrxR activity was expressed as the percentage of control, no drug-treated.

renal cancer lines = tested on: renal cancer lines; design: method as in PMID 28810535; conditions: cited from earlier work
breast cancer lines = tested on: breast cancer lines; design: method as in PMID 31366901; conditions: cited from earlier work
breast cancer cell lines = experiment: Cell proliferation assay, stated across all cell lines; format: cell-based, human; conditions: 400–600 nM, 48 h
Experimental: 1 × 10^5 cells (2 × 10^5 for T47D’s) were seeded, in triplicate, in 6-well plates and incubated overnight before being treated with IQ9 (0–5000 nM) or doxorubicin (400–600 nM) (positive control and comparator). Total cells were counted after 48 h using a haemocytometer. The total cell count in drug treatment wells was normalised as a percentage of the total cells in vehicle control wells.

In the case of `O=c1[nH]cc(F)c(=O)[nH]1` [5-FU, 5-fluorouracil], the half-life [1] is listed as “less than 20 min”.

In the case of `Cn1c(/C=C/CO)c(CO)c2c1C(=O)C=C(N1CC1)C2=O` [EO9], the clearance [2] is listed as “rapid clearance”.

In the case of `CC(=O)OC[C@H]1O[C@@H]([S-])[C@H](OC(C)=O)[C@@H](OC(C)=O)[C@@H]1OC(C)=O.CCP(CC)CC.[Au+]` [auranofin, reference compound], the “decrease in TrxR activity” value (TrxR; 4 h, across all cell lines) is reported as 70–100%, the “inhibition of TrxR activity” value (TrxR; MDA-MB-231) is reported as “approximately 80%” and the “inhibition of TrxR activity” value (TrxR; T47D, compared to control) is reported as 10%.

In the case of `COc1cc(/C=C/C(=O)CC(=O)/C=C/c2ccc(O)c(OC)c2)ccc1O` [curcumin], the SER (renal cancer lines) is listed as 1.42 and the SER (breast cancer lines) is listed as 1.38–1.78.

In the case of `COc1cccc2c1C(=O)c1c(O)c3c(c(O)c1C2=O)C[C@@](O)(C(=O)CO)C[C@@H]3O[C@H]1C[C@H](N)[C@H](O)[C@H](C)O1` [doxorubicin], the “decrease in cell number” value (breast cancer cell lines) is reported as 50–70%.
